{"source": "patent US6362188B1", "about": "“Farnesyl protein transferase inhibitors” (Schering Corporation, priority 1998, dated 2002)", "key": {"Human tumor cells": {"test_system": "Human tumor cells", "test": "Soft Agar Assay (anchorage-independent growth)", "assay_type": "cell-based", "conditions": "colony outgrowth in soft agar, stated as a range for the group", "outline": "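Tumor cells suspended in 0.3% agarose over a 0.6% agarose base, both layers containing the same farnesyl transferase inhibitor concentration. Incubated 10-16 days at 37° C, 5% CO2; colonies stained with MTT (1 mg/mL in PBS) and counted, IC50 determined.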"}}}
{"smiles": "Cc1cn(CC2CCCN(C(=O)C3CN(C4c5ccccc5CCc5cc(Br)cnc54)CCN3C(=O)OC3CCCCC3)C2)cn1", "note": "(centres unmarked) [Example 354]", "values": [{"measurement": "IC50", "setting": "Human tumor cells", "result": "0.05 to 30", "unit": "nM"}, {"measurement": "melting point", "result": "124 to 128", "unit": "°C"}]}
{"smiles": "Cc1cn(C[C@@H]2CCCN(C(=O)[C@H]3CN([C@H]4c5ccccc5CCc5cc(F)cnc54)CCN3C(=O)OC3CCCCC3)C2)cn1", "note": "[Example 383]", "values": [{"measurement": "IC50", "setting": "Human tumor cells", "result": "0.05 to 30", "unit": "nM"}, {"measurement": "melting point", "result": "121 to 126", "unit": "°C"}]}
{"smiles": "Cc1cn(C[C@@H]2CCCN(C(=O)[C@H]3CN([C@@H]4c5ccccc5CCc5cc(F)cnc54)CCN3C(=O)OC3CCCCC3)C2)cn1", "note": "[Example 384]", "values": [{"measurement": "IC50", "setting": "Human tumor cells", "result": "0.05 to 30", "unit": "nM"}, {"measurement": "melting point", "result": "104 to 111", "unit": "°C"}]}
{"smiles": "Cc1cn(C[C@@H]2CCCN(C(=O)[C@H]3CN([C@H]4c5ccc(Cl)cc5CCc5ccc[n+]([O-])c54)CCN3C(=O)OC3CCCCC3)C2)cn1", "note": "[Example 387]", "values": [{"measurement": "IC50", "setting": "Human tumor cells", "result": "0.05 to 30", "unit": "nM"}, {"measurement": "melting point", "result": "85 to 90", "unit": "°C"}]}
{"smiles": "Cc1cn(C[C@@H]2CCCN(C(=O)[C@H]3CN([C@@H]4c5ccc(Cl)cc5CCc5ccc[n+]([O-])c54)CCN3C(=O)OC3CCCCC3)C2)cn1", "note": "[Example 388]", "values": [{"measurement": "IC50", "setting": "Human tumor cells", "result": "0.05 to 30", "unit": "nM"}, {"measurement": "melting point", "result": "108 to 113", "unit": "°C"}]}
{"smiles": "Cc1cn(C[C@@H]2CCCN(C(=O)[C@H]3CN([C@H]4c5ccc(Cl)cc5CCc5cccnc54)CCN3C(=O)OCC(C)(C)C)C2)cn1", "note": "[Example 411]", "values": [{"measurement": "IC50", "setting": "Human tumor cells", "result": "0.05 to 30", "unit": "nM"}, {"measurement": "melting point", "result": "103 to 115", "unit": "°C"}]}
{"smiles": "Cc1cn(C[C@@H]2CCCN(C(=O)[C@H]3CN([C@H]4c5ccc(Cl)cc5CCc5cccnc54)CCN3C(=O)Cc3cc[n+]([O-])cc3)C2)cn1", "note": "[Example 412]", "values": [{"measurement": "IC50", "setting": "Human tumor cells", "result": "0.05 to 30", "unit": "nM"}, {"measurement": "melting point", "result": "175 °C (dec.)"}]}
